From patent US5008267A, “Pyrimidinedione compounds, method of producing the same and antiarrythmic agents containing the same” (Mitsui Toatsu Chemicals, Incorporated, priority 1988, dated 1991)
Structures can show the parent of a compound that is named as a salt.

What was measured:
[1] = Toxicity test, mortality rate 24 hours after administration; details: mouse, in vivo, po, 300 mg/kg (p.o.)
Procedure: Each of the compounds prepared in the above-mentioned examples was administered into a mouse (ddY strain, male). In each case, oral administration (p.o.) and intra peritoneal administration (i.p.) were separately carried out in a dose of 300 mg/kg and 250 mg/kg, respectively.
A mortality rate (number of specimens: one group=2 to 4 mice) of the mice 24 hours after the administration was calculated, and the results are set forth in Table 3.
Following the same procedure as in Toxicity Test 1, toxicity of the respective compounds prepared in the above examples in Table 5 was tested to calculate a mortality rate of mice.
Administration was made by oral administration (p.o.) in an amount of 300 mg/kg of each compound for one mouse.
Following the same procedure as in Toxicity Test 1, toxicity of the respective compounds prepared in the above examples in Table 7 was tested to calculate a mortality rate of mice.

[2] = tested on: Purkinje fiber of the right ventricular free wall (myocardial action potential); experiment: Influence on myocardial action potential duration time (APD75), isolated right ventricular free wall, microelectrode in Purkinje fiber; type: cell-based, dog; details: Canis lupus familiaris, 20 min, 20 minutes' incubation; for activation at 1 µg/mL: 1.0 μg/ml; for activation at 1 µg/mL / activation at 3 µg/mL / activation at 10 µg/mL: (B-A)/A×100, read-out: APD75 (%); for activation at 3 µg/mL: 3.0 μg/ml; for activation at 10 µg/mL: 10.0 μg/ml
[3] = tested on: ventricular muscle refractory period; experiment: Influence on ventricular muscle refractory period (ERP); type: in vivo, mongrel dog; details: Canis lupus familiaris, iv, i.v., (W-Y)/Y×100, read-out: ERP (%; extensibility of refractory period)
Procedure: (2) Influence on ventricular muscle refractory period Refractory periods were measured in the following manner before and after each of the compounds and d-sotalol shown in Table 2 was separately administered to a vein or a duodenum, and ERP (%; extensibility of refractory period) was calculated from the measured values: ERP (%)=(W-Y)/Y×100 W: Refractory period after administration Y: Refractory period before administration To a mongrel adult dog, 30 mg/kg of pentobarbital was administered intravenously, and after being anesthetized, a pair of silver-silver chloride electrodes separated by 3 mm was sewn on an opened right ventricule, and electrical stimulation was given at an interval of 400 msec at a duration time of 4 msec under a current twice as much as the threshold. Afterward, a small amount of alcohol was injected into a sinus artery in order to extinguish a pacemaker activity, and the ventricular refractory period (ERP) was measured under ventricule pacing. That is, each 1 train comprised 10 stimulations having intervals of 400 msec, and an interval between the trains was usually 400 msec. However, this interval was shortened 10 msec by 10 msec at the time of the refractory period measurement, and an interval between the trains at the time when reaction to the first stimulation of the train disappeared was regarded as the refractory period. In this case, the electrical stimulation was fed in accordance with a program by a heart stimulation device (Diamedical Co., Ltd.; DHM-226-3).

| SMILES | mortality at 24 h [1] [%] | activation at 1 µg/mL [2] [%] | activation at 3 µg/mL [2] [%] | activation at 10 µg/mL [2] [%] | change in vivo at 0.1 mg/kg [3] [%] | change in vivo at 0.3 mg/kg [3] [%] | change in vivo at 1 mg/kg [3] [%] | change in vivo at 3 mg/kg [3] [%] | activation at 0.3 µg/mL ([2]; 0.3 μg/ml, (B-A)/A×100) [%] |
| --- | --- | --- | --- | --- | --- | --- | --- | --- | --- |
| Cn1c(NCCNc2ccc([N+](=O)[O-])cc2C(=O)c2ccccc2)cc(=O)n(C)c1=O [Compound 131, 1,3-dimethyl-6-[2-(2-benzoyl-4-nitroanilino)ethylamino]-2,4(1H,3H)-pyrimidinedione oxalate] | 0 | – | – | – | – | – | – | – | – |
| Cn1c(N2CCN(CCOc3ccc(C(=O)c4ccccc4)cc3[N+](=O)[O-])CC2)cc(=O)n(C)c1=O [Compound 103] | 0 | – | – | – | – | – | – | – | – |
| Cn1c(N2CCN(CCCOc3ccc([N+](=O)[O-])cc3C(O)c3ccccc3)CC2)cc(=O)n(C)c1=O (stereo not drawn) [Compound 148, 1,3-dimethyl-6-{4-<3-[2-(α-hydroxybenzyl)-4-nitrophenyloxy]propyl>piperazin-1-yl}-2,4(1H,3H)-pyrimidinedione oxalate] | 0 | – | – | – | – | – | – | – | – |
| Cn1c(N2CCN(CCOc3ccc([N+](=O)[O-])cc3)CC2)cc(=O)n(C)c1=O [Compound 53, 1,3-dimethyl-6-{4-[2-(4-nitrophenoxy)ethyl]piperazin-1-yl}-2,4(1H,3H)-pyrimidinedione hydrochloride] | – | 8 | 22 | 43 | 8.8 | 23 | 30.1 | – | – |
| Cn1c(N2CCN(CCCOc3cccc([N+](=O)[O-])c3)CC2)cc(=O)n(C)c1=O [Compound 38, 1,3-dimethyl-6-{4-[3-(3-nitrophenoxy)propyl]piperazin-1-yl}-2,4(1H,3H)-pyrimidinedione hydrochloride] | – | 15 | 34 | – | 0 | 0 | 7 | 14 | – |
| Cn1c(N2CCN(CCCNc3ccc([N+](=O)[O-])cc3C(=O)c3ccccc3)CC2)cc(=O)n(C)c1=O [Compound 111, 1,3-dimethyl-6-{4-[3-(2-benzoyl-4-nitroanilino)propyl]piperazin-1-yl}-2,4(1H,3H)-pyrimidinedione oxalate] | – | 13 | 21 | – | 7.7 | 10.9 | 14 | 21 | – |
| Cn1c(N2CCN(CCNC(=O)c3ccc([N+](=O)[O-])cc3)CC2)cc(=O)n(C)c1=O [Compound 45, 1,3-dimethyl-6-{4-[2-(4-nitrobenzoylamino)ethyl]piperazin-1-yl}-2,4(1H,3H)-pyrimidinedione hydrochloride] | 0 | – | – | – | – | – | – | – | – |
| Cn1c(N2CCN(CCCc3ccc(C(=O)c4ccccc4)cc3[N+](=O)[O-])CC2)cc(=O)n(C)c1=O [Compound 136, 1,3-dimethyl-6-{4-[3-(4-benzoyl-2-nitrophenyl)propyl]piperazin-1-yl}-2,4(1H,3H)-pyrimidinedione hydrochloride] | – | 11 | 14 | – | – | 7.7 | 15.4 | 15.4 | – |
| Cn1c(N2CCN(CCCOc3c(Cl)cc([N+](=O)[O-])cc3Cl)CC2)cc(=O)n(C)c1=O [Compound 165, 1,3-dimethyl-6-{4-[3-(2,6-dichloro-4-nitrophenyloxy)propyl]piperazin-1-yl}-2,4(1H,3H)-pyrimidinedione hydrochloride] | 0 | – | – | – | – | – | – | – | – |
| Cn1c(N2CCN(CC(O)c3ccc([N+](=O)[O-])cc3)CC2)cc(=O)n(C)c1=O (stereo not shown) [Compound 44, 1,3-dimethyl-6-{4-[2-hydroxy-2-(4-nitrophenyl)ethyl]piperazin-1-yl}-2,4-(1H,3H)-pyrimidinedione hydrochloride] | – | 5 | 13 | 21 | 0 | 7.7 | 19.9 | 27.8 | – |
| Cn1c(N2CCN(CCCc3ccc([N+](=O)[O-])cc3)CC2)cc(=O)n(C)c1=O [Compound 33, 1,3-dimethyl-6-{4-[3-(4-nitrophenyl)propyl]piperazin-1-yl)-2,4(1H,3H)-pyrimidinedione oxalate] | – | 17 | 22 | 31 | 14.3 | 14.3 | 17.9 | 21.4 | – |
| Cn1c(N2CCN(CCOc3ccc([N+](=O)[O-])cc3C(=O)c3ccccc3)CC2)cc(=O)n(C)c1=O [Compound 99] | – | 9 | 22 | 29 | 9.8 | 14.7 | 23.1 | – | – |
| Cn1c(NCCNCCc2ccc([N+](=O)[O-])cc2)cc(=O)n(C)c1=O [Compound 16, 1,3-dimethyl-6-{2-[2-(4-nitrophenyl)ethylamino]ethylamino}-2,4(1H,3H)-pyrimidinedione oxalate] | – | – | 22 | – | 6.7 | 13.3 | 13.3 | – | – |
| Cn1c(N2CCN(CCCOc3ccc([N+](=O)[O-])c(C(F)(F)F)c3)CC2)cc(=O)n(C)c1=O [Compound 150, 1,3-dimethyl-6-{4-[3-(3-trifluoromethyl-4-nitrophenyloxy)propyl]piperazin-1-yl}-2,4(1H,3H)-pyrimidinedione oxalate] | – | – | 16 | – | 0 | 0 | 6.3 | 6.3 | – |
| CCN(CCNc1cc(=O)n(C)c(=O)n1C)CCc1ccc([N+](=O)[O-])cc1 [Compound 21] | – | 13 | 27 | 37 | 7 | 10 | 14 | 14 | – |
| CN(CCCN1CCN(c2cc(=O)n(C)c(=O)n2C)CC1)c1ccc([N+](=O)[O-])cc1 [Compound 69, 1,3-dimethyl-6-{4-[3-(N-methyl-4-nitroanilino)propyl]piperazin-1-yl}-2,4(1H,3H)-pyrimidinedione oxalate] | – | – | 11 | 13 | 6.7 | 6.7 | 13.3 | 20 | – |
| CC(C)NC[C@@H](O)c1ccc(NS(C)(=O)=O)cc1 [d-sotalol, reference compound] | – | 3 | 7.4 | 15.8 | 1.7 | 6.7 | 8.7 | 15.5 | 0 |
| COC(=O)c1ccc(OCCCN2CCN(c3cc(=O)n(C)c(=O)n3C)CC2)c([N+](=O)[O-])c1 [Compound 154, 1,3-dimethyl-6-{4-[3-(4-methoxycarbonyl-2-nitrophenyloxy)propyl]piperazin-1-yl}-2,4(1H,3H)-pyrimidinedione oxalate] | – | 9 | 12 | 20 | 0 | 0 | 5.9 | 11.8 | – |
| Cn1c(N2CCN(CCCOc3ccc([N+](=O)[O-])cc3N)CC2)cc(=O)n(C)c1=O [Compound 153, 1,3-dimethyl-6-{4-[3-(2-amino-4-nitrophenyloxy)propyl]piperazin-1-yl}-2,4(1H,3H)-pyrimidinedione oxalate] | – | 20 | 25 | – | 6.1 | 9.1 | 18.3 | – | – |
| Cn1c(N2CCN(CC(=O)c3ccc([N+](=O)[O-])cc3)CC2)cc(=O)n(C)c1=O [Compound 42, 1,3-dimethyl-6-[4-(4-nitrophenacyl)piperazin-1-yl]-2,4(1H,3H)-pyrimidinedione hydrochloride] | – | 2 | 10 | 17 | 4.6 | 9.4 | 11.7 | 18.4 | – |
